Results: patent US20220089598A1, “INHIBITORS OF HUMAN IMMUNODEFICIENCY VIRUS REPLICATION” (VIIV HEALTHCARE UK (No. 5) LIMITED, priority 2018, published 2022)

Columns and labels:
[1] = tested on: recombinant NL4-3 virus (Renilla luciferase) in MT-2 cells; experiment: HIV cell culture assay (antiviral activity, luciferase readout); assay type: cell-based; conditions: Renilla, NL43
Protocol: HIV cell culture assay—MT-2 cells, 293T cells and the proviral DNA clone of NL4-3 virus were obtained from the NIH AIDS Research and Reference Reagent Program. MT-2 cells were propagated in RPMI 1640 media supplemented with 10% heat inactivated fetal bovine serum (FBS), 100 μg/ml penicillin G and up to 100 units/mL streptomycin. The 293T cells were propagated in DMEM media supplemented with 10% heat inactivated FBS, 100 μg/mL penicillin G and 100 μg/mL streptomycin. A recombinant NL4-3 proviral clone, in which a section of the nef gene was replaced with the Renilla luciferase gene, was used to make the reference virus used in these studies. The recombinant virus was prepared through transfection of the recombinant NL4-3 proviral clone into 293T cells using Transit-293 Transfection Reagent from Mirus Bio LLC (Madison, Wis.). Supernatent was harvested after 2-3 days and the amount of virus present was titered in MT-2 cells using luciferase enzyme activity as a marker by measuring luciferase enzyme activity. Luciferase was quantitated using the EnduRen Live Cell Substrate from Promega (Madison, Wis.). Antiviral activities of compounds toward the recombinant virus were quantified by measuring luciferase activity in MT-2 cells infected for 4-5 days with the recombinant virus in the presence of serial dilutions of the compound.
The 50% effective concentration (EC50) was calculated by using the exponential form of the median effect equation where (Fa)=1/[1+(ED50/drug conc.)m] (Johnson V A, Byington R T. Infectivity Assay. In Techniques in HIV Research. ed. Aldovini A, Walker B D. 71-76. New York: Stockton Press. 1990).

[2] = Compound cytotoxicity, XTT-based colorimetric assay; assay type: cell-based; conditions: human; uninfected MT2 cells, day 4, XTT assay
Protocol: Compound cytotoxicity and the corresponding CC50 values were determined using the same protocol as described in the antiviral assay except that uninfected cells were used. Cytotoxicity was assessed on day 4 in uninfected MT2 cells by using a XTT (2,3-bis[2-Methoxy-4-nitro-5-sulfophenyl]-2H-tetrazolium-5-carboxyanilide inner salt)-based colorimetric assay (Sigma-Aldrich, St Louis, Mo.).

Row | SMILES | EC50 [1] [nM] | CC50 at 4 day [2] [nM]
1 | Cn1nc(NS(C)(=O)=O)c2c(Cl)ccc(-n3c([C@H](Cc4cc(F)cc(F)c4)NC(=O)Cn4nc(C(F)F)c5c4C(F)(F)[C@@H]4C[C@H]54)nc4nc(-c5cc(Cl)c(F)cc5F)ccc4c3=O)c21 (atropisomer, axis not shown; (P)) [Example 6, N—((S)-1-((3P)-3-(4-chloro-1-methyl-3-(methylsulfonamido)-1H-indazol-7-yl)-7-(5-chloro-2,4-difluorophenyl)-4-oxo-3,4-dihydropyrido[2,3-d]pyrimidin-2-yl)-2-(3,5-difluorophenyl)ethyl)-2-((3bS,4aR)-3-(difluoromethyl)-5,5-difluoro-3b,4,4a,5-tetrahydro-1H-cyclopropa[3,4]cyclopenta[1,2-c]pyrazol-1-yl)acetamide] | 0.192 | > 100
2 | COc1nc2nc([C@H](Cc3cc(F)cc(F)c3)NC(=O)Cn3nc(C(F)F)c4c3C(F)(F)[C@@H]3C[C@H]43)n(-c3ccc(Cl)c4c(NS(C)(=O)=O)nn(C)c34)c(=O)c2cc1-c1ccccc1F (atropisomer, axis not shown; (P)) [Example 2, N—((S)-1-((3P)-3-(4-chloro-1-methyl-3-(methylsulfonamido)-1H-indazol-7-yl)-6-(2-fluorophenyl)-7-methoxy-4-oxo-3,4-dihydropyrido[2,3-d]pyrimidin-2-yl)-2-(3,5-difluorophenyl)ethyl)-2-((3bS,4aR)-3-(difluoromethyl)-5,5-difluoro-3b,4,4a,5-tetrahydro-1H-cyclopropa[3,4]cyclopenta[1,2-c]pyrazol-1-yl)acetamide] | 0.25 | > 1000
3 | Cn1nc(NS(C)(=O)=O)c2c(Cl)ccc(-n3c([C@H](Cc4cc(F)cc(F)c4)NC(=O)Cn4nc(C(F)F)c5c4C(F)(F)[C@@H]4C[C@H]54)nc4nc(-c5ccc(F)c(Cl)c5)ccc4c3=O)c21 (atropisomer, axis not shown; (P)) [Example 29, N—((S)-1-((3P)-3-(4-chloro-1-methyl-3-(methylsulfonamido)-1H-indazol-7-yl)-7-(3-chloro-4-fluorophenyl)-4-oxo-3,4-dihydropyrido[2,3-d]pyrimidin-2-yl)-2-(3,5-difluorophenyl)ethyl)-2-((3bS,4aR)-3-(difluoromethyl)-5,5-difluoro-3b,4,4a,5-tetrahydro-1H-cyclopropa[3,4]cyclopenta[1,2-c]pyrazol-1-yl)acetamide] | 0.12 | > 100
4 | Cn1nc(NS(C)(=O)=O)c2c(Cl)ccc(-n3c([C@H](Cc4cc(F)cc(F)c4)NC(=O)Cn4nc(C(F)F)c5c4C(F)(F)[C@@H]4C[C@H]54)nc4nc(-c5ccc(Cl)cc5Cl)ccc4c3=O)c21 (atropisomer, axis not shown; (P)) [Example 25, N—((S)-1-((3P)-3-(4-chloro-1-methyl-3-(methylsulfonamido)-1H-indazol-7-yl)-7-(2,4-dichlorophenyl)-4-oxo-3,4-dihydropyrido[2,3-d]pyrimidin-2-yl)-2-(3,5-difluorophenyl)ethyl)-2-((3bS,4aR)-3-(difluoromethyl)-5,5-difluoro-3b,4,4a,5-tetrahydro-1H-cyclopropa[3,4]cyclopenta[1,2-c]pyrazol-1-yl)acetamide] | 0.42 | > 100
5 | CS(=O)(=O)Nc1nn(CC(F)(F)F)c2c(-n3c([C@H](Cc4cc(F)cc(F)c4)NC(=O)Cn4nc(C(F)F)c5c4C(F)(F)[C@@H]4C[C@H]54)nc4nc(-c5ccccc5F)ccc4c3=O)ccc(Cl)c12 (atropisomer, axis not shown; (P)) [Example 27, N—((S)-1-((3P)-3-(4-chloro-3-(methylsulfonamido)-1-(2,2,2-trifluoroethyl)-1H-indazol-7-yl)-7-(2-fluorophenyl)-4-oxo-3,4-dihydropyrido[2,3-d]pyrimidin-2-yl)-2-(3,5-difluorophenyl)ethyl)-2-((3bS,4aR)-3-(difluoromethyl)-5,5-difluoro-3b,4,4a,5-tetrahydro-1H-cyclopropa[3,4]cyclopenta[1,2-c]pyrazol-1-yl)acetamide] | 0.088 | > 500
6 | Cn1nc(NS(C)(=O)=O)c2c(Cl)ccc(-n3c([C@H](Cc4cc(F)cc(F)c4)NC(=O)Cn4nc(C(F)F)c5c4C(F)(F)[C@@H]4C[C@H]54)nc4nc(-c5c(F)cccc5F)ccc4c3=O)c21 (atropisomer, axis not shown; (P)) [Example 3, N—((S)-1-((3P)-3-(4-chloro-1-methyl-3-(methylsulfonamido)-1H-indazol-7-yl)-7-(2,6-difluorophenyl)-4-oxo-3,4-dihydropyrido[2,3-d]pyrimidin-2-yl)-2-(3,5-difluorophenyl)ethyl)-2-((3bS,4aR)-3-(difluoromethyl)-5,5-difluoro-3b,4,4a,5-tetrahydro-1H-cyclopropa[3,4]cyclopenta[1,2-c]pyrazol-1-yl)acetamide] | 0.11 | > 100
7 | O=C(Cn1ccc(C2CC2)n1)N[C@@H](Cc1cc(F)cc(F)c1)c1nc2nc(-c3ccccc3F)ccc2c(=O)n1-c1ccc(Cl)c2c(NS(=O)(=O)C3CC3)nn(CC(F)F)c12 (atropisomer, axis not shown; (P)) [Example 35, (S)—N-(1-((3P)-3-(4-chloro-3-(cyclopropanesulfonamido)-1-(2,2-difluoroethyl)-1H-indazol-7-yl)-7-(2-fluorophenyl)-4-oxo-3,4-dihydropyrido[2,3-d]pyrimidin-2-yl)-2-(3,5-difluorophenyl)ethyl)-2-(3-cyclopropyl-1H-pyrazol-1-yl)acetamide] | 0.2 | > 500
8 | Cn1nc(NS(C)(=O)=O)c2c(Cl)ccc(-n3c([C@H](Cc4cc(F)cc(F)c4)NC(=O)Cn4nc(C(F)F)c5c4C(F)(F)[C@@H]4C[C@H]54)nc4nc(-c5ccc(F)cc5S(C)(=O)=O)ccc4c3=O)c21 (atropisomer, axis not shown; (P)) [Example 19, N—((S)-1-((3P)-3-(4-chloro-1-methyl-3-(methylsulfonamido)-1H-indazol-7-yl)-7-(4-fluoro-2-(methylsulfonyl)phenyl)-4-oxo-3,4-dihydropyrido[2,3-d]pyrimidin-2-yl)-2-(3,5-difluorophenyl)ethyl)-2-((3bS,4aR)-3-(difluoromethyl)-5,5-difluoro-3b,4,4a,5-tetrahydro-1H-cyclopropa[3,4]cyclopenta[1,2-c]pyrazol-1-yl)acetamide] | 0.12 | > 500
9 | Cn1nc(NS(C)(=O)=O)c2c(Cl)ccc(-n3c([C@H](Cc4cc(F)cc(F)c4)NC(=O)Cn4ccc(C5CC5)n4)nc4nc(-c5ccccc5F)ccc4c3=O)c21 (atropisomer, axis not shown; (P)) [Example 34, (S)—N-(1-((3P)-3-(4-chloro-1-methyl-3-(methylsulfonamido)-1H-indazol-7-yl)-7-(2-fluorophenyl)-4-oxo-3,4-dihydropyrido[2,3-d]pyrimidin-2-yl)-2-(3,5-difluorophenyl)ethyl)-2-(3-cyclopropyl-1H-pyrazol-1-yl)acetamide] | 0.089 | > 500
10 | Cn1nc(NS(C)(=O)=O)c2c(Cl)ccc(-n3c([C@H](Cc4cc(F)cc(F)c4)NC(=O)Cn4nc(C(F)F)c5c4C(F)(F)[C@@H]4C[C@H]54)nc4nc(-c5cc(F)c(F)c(F)c5)ccc4c3=O)c21 (atropisomer, axis not shown; (P)) [Example 12, N—((S)-1-((3P)-3-(4-chloro-1-methyl-3-(methylsulfonamido)-1H-indazol-7-yl)-4-oxo-7-(3,4,5-trifluorophenyl)-3,4-dihydropyrido[2,3-d]pyrimidin-2-yl)-2-(3,5-difluorophenyl)ethyl)-2-((3bS,4aR)-3-(difluoromethyl)-5,5-difluoro-3b,4,4a,5-tetrahydro-1H-cyclopropa[3,4]cyclopenta[1,2-c]pyrazol-1-yl)acetamide] | 0.21 | > 100
11 | Cn1nc(NS(C)(=O)=O)c2c(Cl)ccc(-n3c([C@H](Cc4cc(F)cc(F)c4)NC(=O)Cn4nc(C(F)F)c5c4C(F)(F)[C@@H]4C[C@H]54)nc4nc(-c5cc(F)cc(F)c5)ccc4c3=O)c21 (atropisomer, axis not shown; (P)) [Example 21, N—((S)-1-((3P)-3-(4-chloro-1-methyl-3-(methylsulfonamido)-1H-indazol-7-yl)-7-(3,5-difluorophenyl)-4-oxo-3,4-dihydropyrido[2,3-d]pyrimidin-2-yl)-2-(3,5-difluorophenyl)ethyl)-2-((3bS,4aR)-3-(difluoromethyl)-5,5-difluoro-3b,4,4a,5-tetrahydro-1H-cyclopropa[3,4]cyclopenta[1,2-c]pyrazol-1-yl)acetamide] | 0.08 | > 100
